Assay results from patent publication US20230390384A1 (priority 2020, published 2023).

What was measured:
COVID-19 S1 antigen = assay type: in vivo, SARS-CoV-2; conditions: Example 2, FIG. 6a; 5 μg each S1 and RBD; L-pampo 75 μg Pam3CSK4 + 60 μg poly(I:C) vs Alum, Addavax, AddaS03; Balb/c mice i.m. twice at 3-week intervals, serum 2 weeks after second immunization
COVID-19 RBD antigen = assay type: in vivo, SARS-CoV-2; conditions: Example 2, FIG. 6b; 5 μg each S1 and RBD; L-pampo 75 μg Pam3CSK4 + 60 μg poly(I:C) vs Alum, Addavax, AddaS03; Balb/c mice i.m. twice at 3-week intervals, serum 2 weeks after second immunization
Mouse splenocytes = experiment: IFN-γ ELISPOT on splenocytes of immunized mice (cellular immune response); assay type: in vivo, Balb/c mice; conditions: Example 3, FIG. 11; test vaccine using only poly(I:C) as adjuvant, among all test vaccines

**Q.** Which results are given for “N-palmitoyl-S-[2,3-bis(palmitoyloxy)-(2RS)-propyl]-[R]-cystein-SKKKK [Pam3CSK4]”?
**A.** S1 antigen-specific antibody titer (COVID-19 S1 antigen): relatively superior; RBD antigen-specific antibody titer (COVID-19 RBD antigen): relatively superior

**Q.** How did the “IFN-γ spot formation (ELISPOT)” value (Mouse splenocytes) turn out when poly(I:C) was run?
**A.** Its value is “most IFN-γ spot formation”.
